The values that follow come from patent publication US4448730A, “Hydroxybenzohydroxamic acids, benzamides and esters and related compounds as ribonucleotide reductase inhibitors” (priority 1982, dated 1984).

Structures are written as SMILES. Where “and” joins values, the source holds several entries; their conditions need not be identical. Identical values can stand only once. Like-named read-outs stand apart in the source and are kept apart here.

Series [1] deals with L-1210 Leukemia. Kind of series: Direct side-by-side comparison with L-1210 leukemia. In kind it is in vivo, mice. The text has this: In a direct side-by-side comparison with L-1210 leukemia, the following results were obtained.
Series [2] has as its system colon 38 tumor. Kind of series: Inhibition of growth of colon tumor C8 (colon 38). In kind it is in vivo, mice. The text has this: (§1) The same two compounds were effective in inhibiting the growth of the following transplanted tumors--B16 melanoma, M-1 human breast xenograft, LX-1 human lung xenograft, CD8F mammary tumor and colon 38 tumor--as follows: […]
In series [3] the test system is L-1210 Leukemia. In kind it is in vivo, mice. The method, then:
In a series of studies against L-1210 leukemia, in addition to those studies set forth in Table 2 and 4, 3,4-dihydroxybenzohydroxamic acid gave the following increases in survival times at the dose levels specified. Drug was administered daily for nine days.
Similar data for 3,4,5-trihydroxybenzohydroxamic acid are as follows: […]

In series [4] the test system is L-1210 Leukemia. In kind it is in vivo, mice. As to conditions: once or twice daily for 9-10 days.
Protocol: (§3) All compounds were administered once or twice daily for 9-10 days starting 24 hours after inoculation with the tumor.
Series [5] concerns B16 melanoma. The experiment in a line: B16 melanoma, increase in survival. In kind it is in vivo, mice.
Excerpt: as §1

Series [6] has as its system CD8F mammary tumor. Kind of series: Inhibition of growth of CD8F mammary tumor. The series is classed as in vivo.
Excerpt: as §1

Series [7] deals with P388 Leukemia. The experiment in a line: Activity vs. P388 Leukemia (Table 8). The series is classed as in vivo, mice. The note with it: once or twice daily for 9-10 days.
Protocol: as §3
Series [8] concerns Lewis Lung. The experiment in a line: Activity vs. Lewis Lung (Table 5). In kind it is in vivo, mice. As to conditions: once or twice daily for 9-10 days.
Protocol: as §3
Series [9] relates to CA-755 adenocarcinoma. Kind of series: Activity vs. CA-755 adenocarcinoma (Table 7). The series is classed as in vivo, mice. As to conditions: once or twice daily for 9-10 days.
Protocol: as §3
The target of series [10] is T1, ribonucleotide reductase (Rattus norvegicus, UniProt Q4KLN6).
T1 construct: partially purified from Novikoff hepatoma; from tissue; host or cells: Novikoff hepatoma (rat tumour), partially purified enzyme
T1 sequence (Q4KLN6 1-390): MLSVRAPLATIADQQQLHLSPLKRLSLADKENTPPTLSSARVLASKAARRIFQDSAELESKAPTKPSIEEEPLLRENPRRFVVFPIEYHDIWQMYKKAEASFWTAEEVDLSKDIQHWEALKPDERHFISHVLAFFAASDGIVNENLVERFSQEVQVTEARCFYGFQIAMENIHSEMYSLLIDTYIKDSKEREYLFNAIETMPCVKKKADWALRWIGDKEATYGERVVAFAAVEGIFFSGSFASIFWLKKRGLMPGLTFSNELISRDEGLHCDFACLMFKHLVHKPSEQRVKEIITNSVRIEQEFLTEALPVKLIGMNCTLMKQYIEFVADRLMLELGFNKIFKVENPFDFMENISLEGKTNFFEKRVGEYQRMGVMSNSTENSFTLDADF
The experiment in a line: Inhibition of ribonucleotide reductase (conversion of CDP to dCDP), enzyme partially purified from Novikoff hepatoma. The series is classed as biochemical. The text has this:
(§2) Table 2 gives ribonucleotide reductase data for certain compounds of formula I. In the table, column 1 gives the substitution pattern in the benzene ring, column 2, the R^1 group, column 3, the ID50 (inhibitory dose in micromolar concentration which inhibits ribonucleotide reductase by 50%), column 4, the average percent (± standard error) increase in the life span (ILS) of 8 treated mice inoculated with L1210 leukemia compared with 8 control mice also inoculated with L1210. The daily dose level of the drug which was administered for 8 days is indicated in column 5. Table 3 gives the relative potency of the compounds represented by formula I above as inhibitors of ribonucleotide reductase compared to hydroxyurea whose potency was given an arbitrary value of 1.0. In table 3, column 1 gives the name of the compound and column 2 the relative inhibitory potency of each of the compounds of column 1.
In the above determination of ID50 's in Table 3, ribonucleotide reductase is partially purified from Novikoff hepatoma by a procedure similar to that set forth by Elford et al. J. Biol. Chem. 245, 5228 (1970). The activity of the enzyme was measured by a slightly modified assay procedure originally developed by Reichard et al. id, 236, 1150 […]. This procedure measures the conversion of CDP to dCDP. The assay mixture (0.34 ml.) contains 3 μCi of [^3 H] CDP (specific activity […]), 3.3 μmole ATP, 5.9 μmoles magnesium chloride, 8.8 μmoles Hepes buffer at pH=7.5, 15 μmoles dithiothreitol and enzyme protein between 0.4 and 1.3 mg. Incubation was provided for forty minutes at 30° C. Ion exchange chromatography employing Dowex 50 (H^+) resin is used to separate the product from the substrate. The inhibitors were dissolved in water and a mixture of water and up to 1 % ethanol or 2% dimethylsulfoxide, neither one of which inhibited the enzyme at these concentrations. Each inhibitor was tested at a minimum of three concentrations and the active compounds reassayed at least one additional time. ID50 's in μmoles were estimated from graphs summarizing results for each compound.

The test system of series [11] is LX-1 human lung xenograft. The experiment in a line: Inhibition of growth of LX-1 human lung xenograft. In kind it is in vivo, mice.
Excerpt: as §1

Series [12] concerns L-5563 lymphoma. Kind of series: Activity vs. L-5563 lymphoma (Table 6). The note with it: 200 mg/kg; once or twice daily for 9-10 days.
Protocol: as §3
In series [13] the test system is CX-1 colon xenograft. The experiment in a line: Activity against CX-1 colon xenograft. The series is classed as in vivo. The method, then: In addition, the compound 3,4-dihydroxybenzenehydroxamic acid was active against CX-1 colon xenograft using the following protocol:
0% tumor inhibition at 800 mg/kg dose level every fourth day,
3,4,5-trihydroxybenzohydroxamic acid gave the following results against the same tumor using the same protocol.

Series [14] deals with L-1210 Leukemia. The series is classed as in vivo, mice. The text has this:
The above data clearly show the enhanced anti-tumor activity of trihydroxybenzohydroxamic acid where the hydroxy groups are vicinal but no hydroxyl is ortho. Similar data are available for the vicinal dihydroxybenzohydroxamic acids with and without an ortho-hydroxy substituent in an L-1210 leukemic test in mice as follows: […]
This is another data set of the same source.

In series [15] the test system is L1210 leukemia. The experiment in a line: L1210 leukemia in mice, increase in life span (Table 2). The series is classed as in vivo. As to conditions: Mus musculus, L1210, 192 h; 600 mg/kg daily for 8 days; read-out: ILS, average percent (± standard error) increase in life span.
Excerpt: As stated above, the compounds represented by formula I above have the ability to inhibit ribonucleotide reductase, an enzyme involved in the reductive conversion of ribonucleotides to deoxyribonucleotides. This enzymatic reaction is a rate controlling step in the biosynthetic pathway leading to DNA and cell replication. In general, the ribonucleotide reductase level is closely correlated with cellular replication.
as §2

Series [16] deals with DNA synthesis in Ehrlich ascites tumor cells. As to conditions: Gale and Hynes 1968; in vitro; cited from earlier work.
Series [17] deals with RNA and protein synthesis in Ehrlich ascites tumor cells. The note with it: Gale and Hynes 1968; cited from earlier work.
In series [18] the test system is DNA, RNA and protein synthesis in cells. The note with it: cited from earlier work.

One may read the inhibition as the change of the read-out against control, counted positive when it falls. A low value points to a weak effect. Usually % inhibition stands for the drop in the measured response relative to a control, in per cent. Higher therefore signals a strong effect. As a reminder, the ILS is how much longer treated animals lived than controls. For the compound `O=C(NO)c1ccc(O)c(O)c1` [3,4-dihydroxybenzohydroxamic acid], the “% increase in survival time” value in series [1] (250 mg/kg) is given as 32%; in series [1] (500 mg/kg), 70%; in [4] (225 mg/kg), 65%; in series [14] (100 mg/kg) it was 25%; in series [14] (300 mg/kg), 56%; in series [14] (453 mg/kg), 125%. Also, the “% increase in survival time” value in series [14] (500 mg/kg) is 84%; in [14] (543 mg/kg), 77%; in [14] (600 mg/kg) it was 94% and 103%; in series [14] (643 mg/kg), 65%. Further, the inhibition is on record as 12% in [2] (50 mg/kg); 8% in [2] (100 mg/kg); 15% in series [2] (200 mg/kg); 52% in [2] (400 mg/kg); 52% in [6] (300 mg/kg); 11% in [6] (600 mg/kg). Further, the inhibition is reported as 0% in [11] (200 mg/kg), 26% in [11] (400 mg/kg) and 27% in [11] (800 mg/kg). Moreover, the “% increase in survival” value in [3] (25 mg/kg daily for nine days) was 15%; in series [3] (50 mg/kg daily for nine days), 25%; in series [3] (100 mg/kg daily for nine days), 37%; in series [3] (164 mg/kg daily for nine days), 21%; in [3] (196 mg/kg daily for nine days), 52%; in series [3] (200 mg/kg daily for nine days), 67%. Also, the “% increase in survival” value in [3] (235 mg/kg daily for nine days) is 39%; in series [3] (245 mg/kg daily for nine days), 45% and 68%; in [3] (307 mg/kg daily for nine days), 67% and 76%; in [3] (336 mg/kg daily for nine days) it was 55%; in series [3] (384 mg/kg daily for nine days) it was 62% and 85%; in [3] (400 mg/kg daily for nine days), 67%. In addition, the “% increase in survival” value in series [3] (480 mg/kg daily for nine days) is 106% and 87% and 67%; in series [3] (600 mg/kg daily for nine days) it was 54% and 64%. The compound also showed a survivors in [4] (200 mg/kg) of 4 survivors. Besides, the increase in survival was 24-25% in series [5] (200 mg/kg) and 41% in series [5] (400 mg/kg). Moreover, the “% Prolongation” value in series [7] (200 mg/kg) is given as 51%; in series [7] (225 mg/kg), 89%. In addition, the “% tumor inhibition” value in series [8] (200 mg/kg) was 14%; in series [8] (400 mg/kg), 31-58%. Besides, the “% inhibition” value in [9] (100 mg/kg) was 16%; in series [9] (200 mg/kg) it was 25% and 36%; in [9] (300 mg/kg), 52%; in series [12], 24%. Further, the “toxic (in column % inhibition)” value in [9] (300 mg/kg) was “toxic”. In addition, in series [10] (CDP to dCDP, 40 min at 30° C, pH 7.5, enzyme from Novikoff hepatoma, read-out: ID50 (inhibitory dose which inhibits ribonucleotide reductase by 50%)), the IC50 amounted to 30 µM. Moreover, in [10] (relative to hydroxyurea, given an arbitrary value of 1.0), the “Inhibitory Potency for ribonucleotide reductase” value stood at 17. In addition, the figures for the tumor inhibition in [13] (200 mg/kg every fourth day), in [13] (400 mg/kg every fourth day) and in series [13] (800 mg/kg every fourth day) were 48%, 14% and 0%, respectively. The “activity against CX-1 colon xenograft (in words)” value in [13] (every fourth day) was “active”. Moreover, the ILS at 600 mg/kg in series [15] amounted to 103 ± 15%.
For the compound `Nc1cccc(C(=O)NO)c1` [3-Aminobenzohydroxamic acid], the “inhibition of / selectivity against DNA synthesis (in words)” value in series [16] was “completely inhibiting DNA synthesis”. Besides, in series [17], the “depression of RNA and protein synthesis” value is 50%.
With `O=C(NO)c1ccccc1` [Benzohydroxamic acid], the “inhibition of RNA synthesis (in words)” value in [17] is reported as “found to inhibit RNA synthesis”.
For `O=C(NO)c1ccccc1O` [salicylhydroxamic acid], the “inhibition of DNA synthesis (in words)” value in [18] (Gale 1966) is given as “selective inhibition of DNA synthesis”. Besides, the “depression of RNA and protein synthesis (in words)” value in series [18] (cells preincubated for up to two hours) is “only a slight depression of RNA and protein synthesis”. Further, the “inhibition of / selectivity against DNA synthesis (in words)” value in [16] was “selective inhibition of DNA synthesis”.
